Tests used:
[1] = tested on: methionine synthesis activity in P. inhibens protein crude extracts; test: Methionine synthesis activity assay with P. inhibens protein crude extracts; assay type: biochemical, Phaeobacter inhibens; conditions: crude extracts of stationary bacterial cells treated with 1 μM DMSP for 2 hours; LC/MS
Protocol: The bacterium P. inhibens DSM 17395 was cultivated in 100 mL ASW with 5.5 mM glucose until reaching stationary phase, and then treated with 1 μM DMSP for 2 hours. Cell pellets of control and treated bacteria were harvested by 10 min centrifugation (15,000 rpm) at 4° C. The pellets were washed with buffer A (50 mM Hepes-KOH PH 7.5), resuspended in buffer B (50 mM Hepes-KOH PH 7.5, 10 mM β-mercaptoethanol, 1 mM EDTA) and disrupted by 5 min bead beating at 30 s^−1 with 300 mg silica beads (Mixer Mill MM-400, Retsch, Haan, Germany). The supernatant was collected by 5 min centrifugation (15,000 rpm). To measure the activity of enzymatic DMSP demethylation and methionine formation, 0.5 mL crude extract (1 mg/mL protein; determined with Bio-Rad protein assay, Hercules, California, U.S.) were incubated for 1 h with 1 mL Buffer C (60 mM PPB, 4.5 mM homocysteine, 4.5 mM DMSP, pH 7.5). The reaction mix was snap frozen in liquid nitrogen, and subsequently analyzed for product formation using LC/MS (FIG. 10).
To further elucidate the fate of methyl groups, the inventors analyzed the transcriptome of DMSP-treated P. inhibens bacteria during the lag phase, and compared it to untreated control cultures. […]

[2] = tested on: E. coli; test: Lag phase shortening in E. coli; assay type: cell-based, Escherichia coli; conditions: treatment with algal metabolites
Source text: To explore whether lag phase shortening is a general mechanism among bacteria, the inventors tested the effect of methylated compounds in bacteria with different lifestyles. […] Since methylated compounds are a hallmark of photosynthesizing organisms, the inventors next tested a variety of bacteria that are plant-associated. […] Finally, to establish the prevalence of lag phase shortening among bacteria, the inventors tested the model bacterium E. coli. This bacterium is not commonly found associated with photosynthesizing organisms, and thus, is unlikely to respond to algal metabolites. […] The synchrony between specific compounds and different groups of bacteria may reflect the natural context […].

[3] = tested on: P. inhibens ΔmetE mutant; test: Lag phase shortening in ΔmetE mutant; assay type: cell-based, Phaeobacter inhibens; conditions: 2 μM DMSP, minimal media
Protocol: For creation of P. inhibens knockout cells, ˜1,000 bp regions upstream and downstream of the gene of interest were amplified by PCR (Phusion High-Fidelity DNA polymerase, Thermo Scientific), using primers that added homologous regions to gentamycin or kanamycin resistance markers. The fragments were assembled and cloned into the TOPOII vector (Invitrogen) using restriction-free cloning (Peleg Y. & Unger T., 2014), generating a knockout (KO) plasmid. P. inhibens electrocompetent cells (300 μl) were transformed with 10 μg of the constructed KO plasmid by a pulse of 1.8 kV (Bio Rad). Cells were selected on ½YTSS agar plates containing 30 μg/ml gentamycin or 150 μg/ml kanamycin. Successful knockouts in single cell clones were verified by PCR and sanger sequencing.
P. inhibens harbors another methionine synthase encoded by metE (FIGS. 1C and 4; gene 65). To test the possible contribution of this enzyme to lag phase shortening the inventors knocked-out the gene and examined the performance of the mutant strain. […] To further rule out the involvement of MetE in lag phase shortening, the inventors perturbed the function of MetE using an inhibitor of its methyl donor. To produce methionine, MetE utilizes 5-methyl-tetrahydrofolate (THF) as a methyl donor (Pejchal and Ludwig, 2005). THF is central in the process of bacterial nucleotide production (Quinlivan et al., 2000).

[4] = tested on: Bacillus subtilis strain 168; test: Lag phase shortening in B. subtilis; assay type: cell-based; conditions: 2 μM compound
Protocol: The bacterial strain Phaeobacter inhibens DSM 17395 was purchased from the German collection of microorganisms and cell cultures (DSMZ, Braunschweig, Germany) and stored at −80° C. with 20% glycerol. Routine cultivation of P. inhibens was conducted at 30° C. in artificial seawater medium (ASW) based on Goyet and Poisson (1989). The ASW medium contained mineral salts (NaCl, 409.41 mM; Na2SO4, 28.22 mM; KCl, 9.08 mM; KBr, 0.82 mM; NaF, 0.07 mM; Na2CO3, 0.20 mM; NaHCO3, 2 mM; MgCl2, 50.66 mM; SrCl2, 0.09 mM), L1 vitamins (thiamine HCl, 100 μg/L; biotin, 0.5 μg/L; vitamin B12, […]), L1 trace elements (Na2EDTA·2H2O, 4.36 mg/L; FeCl3·6H2O, 3.15 mg/L; MnCl2·4H2O, 178.1 μg/L; ZnSO4·7H2O, 23.0 μg/L; CoCl2·6H2O, 11.9 μg/L; CuSO4·5H2O, 2.5 μg/L; Na2MoO4·2H2O, 19.9 μg/L; H2SeO3, 1.29 μg/L; NiSO4·6H2O, 2.63 μg/L; Na3 VO4, 1.84 μg/L; K2CrO4, 1.94 μg/L), and L1 nutrients (NaNO3, 882 μM; NaH2PO4, 36.22 μM). ASW was adjusted to pH 8 using HCl. If not otherwise stated, the medium was further supplemented with a source of carbon (glucose, 1 mM), nitrogen (NH4Cl, 5 mM), and sulfur (Na2SO4, 33 mM), referred to as ASW+CNS. Methylated effector compounds (e.g., donors) were administered at 1 or 2 μM in routine assays, or in higher concentrations as stated. The bacterium Bacillus subtilis strain 168 was cultivated in M9 Medium (Na2HPO4, 6 g/L; KH2PO4, 3 g/L; NaCl, 0.5 g/L; NH4CL, 1 g/L; CaCl2), 100 µM; MgSO4, 1 mM; Thiamine, 5 mg/L; EDTA, 50 mg/L; FcCl3, 4.98 mg/L; ZnCl2, 0.84 mg/L; CuCl2·2H2O, 0.13 mg/L; CoCl2·6H2O, 0.1 mg/L; H3BO3, 0.1 mg/L; MnCl2·4H2O, 0.016 mg/L; pH 7.1) with 20 mM glucose. Other bacterial strains tested for lag phase shortening were isolated from the marine environment (Despotović et al., 2021), and cultivated in ASW+CNS. A 96-well Tecan Infinite M Plex plate reader was used for high-resolution monitoring of bacterial growth dynamics at 30° C. […] The growth of bacteria in co-culture with algae was monitored by counting colony forming units (CFU) on ½ YTSS agar plates. The growth of algae was monitored with a CellStream flow cytometer (Merck, Darmstadt, Germany). […]

C[S+](C)CCC(=O)[O-] [DMSP, dimethylsulfoniopropionate]
methionine synthesis activity [1]: elevated
lag phase shortening [2]: did not shorten the lag phase
lag phase shortening [3]: exhibited lag phase shortening similar to wild-type bacteria
lag phase shortening [4]: induction of the lag phase shortening

Reference: patent US20260015574A1, “METHODS FOR SHORTENING LAG PHASE DURATION IN MICROORGANISMS” (YEDA RESEARCH AND DEVELOPMENT CO. LTD., priority 2022, published 2026)
